Values joined by “and” are separate entries in the source; they are usually repeats but may differ in a detail not shown here. Equal values may be shown once.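 Briefly, cells in 96-well plates were exposed to five compound concentrations for 48 h, and endpoints were estimated by linear interpolation. Here, GI50 denotes the concentration required for 50% inhibition of growth. At the TGI there is no net growth.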
Assays:
Assay in all cases: inhibition of tumour cell growth, NCI panel, 48 h
T-47D breast = test system: T-47D breast
HS 578T breast = test system: HS 578T breast
M19-MEL melanoma = test system: M19-MEL melanoma
XF 498 CNS = test system: XF 498 CNS
DMS 114 small cell lung = test system: DMS 114 small cell lung
DLD-1 colon = test system: DLD-1 colon
SNB-78 CNS = test system: SNB-78 CNS
MDA-N = test system: MDA-N

Structure (SMILES): CSc1nsc(S/C=C\C(=O)c2ccc(C)cc2)n1
- GI50 (T-47D breast): 23 µM
- TGI (T-47D breast): > 62.2 µM
- GI50 (HS 578T breast): 0.187 µM
- TGI (HS 578T breast): 6.33 µM

Structure (SMILES): CC1=NOC(=O)C1N=Nc1ccc(Br)c(C)c1 (stereo unspecified)
- TGI (M19-MEL melanoma): 35.6 µM
- TGI (XF 498 CNS): 31.7 µM
- TGI (DMS 114 small cell lung): 29.3 µM
- TGI (DLD-1 colon): 63.1 µM
- TGI (SNB-78 CNS): 62.8 µM

Structure (SMILES): N#Cc1c(C[n+]2ccccc2)c2ccccc2oc1=O
- TGI (M19-MEL melanoma): > 100 µM
- TGI (XF 498 CNS): > 100 µM
- TGI (DMS 114 small cell lung): > 100 µM
- TGI (DLD-1 colon): > 100 µM
- TGI (SNB-78 CNS): > 100 µM

Structure (SMILES): COC(=O)c1ccc(CN2C(=O)C(Cl)=C(Nc3ccc(OC)c(Cl)c3)C2=O)cc1
- GI50 (HS 578T breast): 43 µM
- TGI (HS 578T breast): > 50 µM

Structure (SMILES): COC(=O)c1ccc2c(c1)C(=O)c1c-2n(CCCN)c(=O)c2cc(OC)c(OC)cc12
- GI50 (T-47D breast): 18.9 µM
- TGI (T-47D breast): 44.9 µM
- GI50 (HS 578T breast): 18.5 µM
- TGI (HS 578T breast): 42.1 µM

Structure (SMILES): COc1ccc(/C=C\c2cc(OC)c(OC)c(OC)c2)c(NS(=O)(=O)c2ccc(Cl)cc2)c1O
- GI50 (HS 578T breast): 0.292 µM
- TGI (HS 578T breast): 37 µM

Structure (SMILES): O=C1CCN2CCC(=O)c3c2c(cc2ccccc32)N1
- TGI (M19-MEL melanoma): > 100 µM
- TGI (XF 498 CNS): 93.5 µM
- TGI (DMS 114 small cell lung): > 100 µM
- TGI (DLD-1 colon): > 100 µM
- TGI (SNB-78 CNS): > 100 µM

Structure (SMILES): COC(=O)C(=O)C(C(=O)C(N)=O)c1nc2ccc(C(=O)c3ccccc3)cc2[nH]c1=O (stereo unspecified)
- TGI (T-47D breast): > 100 µM
- TGI (MDA-N): > 100 µM
- TGI (HS 578T breast): > 100 µM

Structure (SMILES): Cc1cnc(Nc2ccc(OCCN3CCCC3)cc2)nc1Nc1cccc(S(=O)(=O)NC(C)(C)C)c1
- GI50 (T-47D breast): 2.13 µM and 2.11 µM
- TGI (T-47D breast): 24.2 µM and > 10 µM
- GI50 (HS 578T breast): 0.181 µM and 0.568 µM
- TGI (HS 578T breast): 2.28 µM and 3.58 µM

Structure (SMILES): Nc1nc(N)nc(CC(=O)O)n1
- TGI (T-47D breast): > 100 µM
- TGI (MDA-N): > 100 µM
- TGI (HS 578T breast): > 100 µM

Structure (SMILES): Clc1ccc2c(c1)C(N1CCNCC1)=Nc1ccccc1O2
- GI50 (T-47D breast): 1.91 µM
- TGI (T-47D breast): 4.58 µM

Structure (SMILES): Cc1ccc2sc3ccc(N)cc3c(=O)c2c1
- TGI (T-47D breast): 78.5 µM
- TGI (MDA-N): > 100 µM
- TGI (HS 578T breast): > 100 µM

Structure (SMILES): Cc1cc(=O)oc2cc(OC(=O)N(CCCl)CCCl)ccc12
- TGI (T-47D breast): > 100 µM
- TGI (MDA-N): > 100 µM
- TGI (HS 578T breast): > 100 µM

Structure (SMILES): COc1cc(/C=C2\CC3C4CC=C5C[C@@H](O)CC[C@]5(C)C4CC[C@]3(C)C2=O)ccc1OCCCn1ccnc1 (stereo partly specified)
- GI50 (T-47D breast): 29.3 µM
- TGI (T-47D breast): > 100 µM
- GI50 (HS 578T breast): 26.9 µM
- TGI (HS 578T breast): 53.7 µM

Structure (SMILES): CC(C)(C)n1cc(-c2ccnc(NCCCNS(=O)(=O)c3ccc(Br)cc3)c2)c(-c2cccc(O)c2)n1
- GI50 (T-47D breast): 2.48 µM
- TGI (T-47D breast): 8.12 µM
- GI50 (HS 578T breast): 2.24 µM
- TGI (HS 578T breast): 5.53 µM

Structure (SMILES): CC(=O)c1cc(-c2ccccc2N)n(-c2ccc3c(c2)OCO3)c1C
- GI50 (T-47D breast): 0.852 µM
- TGI (T-47D breast): > 100 µM
- GI50 (HS 578T breast): 0.303 µM
- TGI (HS 578T breast): > 85.4 µM

Structure (SMILES): CCOC(=O)Cc1csc(N=Nc2c(O)[nH]c3ccccc23)n1
- TGI (T-47D breast): > 100 µM
- TGI (MDA-N): > 100 µM
- TGI (HS 578T breast): > 100 µM

Structure (SMILES): CCCCNC(=O)Oc1ccc(/C(=C(/CC)Cc2ccccc2)c2ccc(OCCN3CCCCCC3)cc2)cc1
- GI50 (T-47D breast): 14.5 µM
- TGI (T-47D breast): 36.9 µM
- GI50 (HS 578T breast): 19.7 µM
- TGI (HS 578T breast): 44.1 µM

Structure (SMILES): CN(C)CCCc1c2ccccc2nc2ccc(Cl)cc12
- TGI (T-47D breast): > 100 µM
- TGI (HS 578T breast): 34.4 µM

Structure (SMILES): S=P(N1CCCC1)(N1CC1)N1CC1
- TGI (M19-MEL melanoma): > 100 µM
- TGI (XF 498 CNS): > 100 µM
- TGI (DMS 114 small cell lung): > 100 µM
- TGI (DLD-1 colon): > 100 µM
- TGI (SNB-78 CNS): > 100 µM

Structure (SMILES): NNS(=O)(=O)c1cc(C(=O)O)cc(C(=O)O)c1
- TGI (T-47D breast): > 100 µM
- TGI (MDA-N): > 100 µM
- TGI (HS 578T breast): > 100 µM

Structure (SMILES): Cc1c(C(=O)CC(=O)C(=O)Nc2cc(Cl)ccc2Cl)[n+](=O)c2ccccc2n1[O-]
- TGI (M19-MEL melanoma): 59.1 µM
- TGI (XF 498 CNS): > 100 µM
- TGI (DMS 114 small cell lung): 61.3 µM
- TGI (SNB-78 CNS): > 100 µM

Structure (SMILES): Oc1c(CN2CCCC2)cc(CSCc2ccccc2)c2cccnc12
- GI50 (T-47D breast): 1.15 µM
- TGI (T-47D breast): 8.26 µM
- GI50 (HS 578T breast): 4.7 µM
- TGI (HS 578T breast): 25 µM

Structure (SMILES): COc1cc2c(c(OC)c1OC)-c1ccc(O)c(=O)cc1[C@@H](NC(C)=O)CC2
- GI50 (T-47D breast): 8.84 µM
- TGI (T-47D breast): > 100 µM
- TGI (MDA-N): 34.4 µM
- GI50 (HS 578T breast): 14.3 µM
- TGI (HS 578T breast): > 100 µM and 71.4 µM

Structure (SMILES): CC(C(=O)O)c1ccc(-c2ccccc2)c(F)c1 (stereo unspecified)
- TGI (T-47D breast): > 100 µM
- TGI (MDA-N): > 100 µM
- TGI (HS 578T breast): > 100 µM

Structure (SMILES): CC1(O)CCC2(C)C(=O)C1(C)CCC21OCCO1 (stereo unspecified)
- TGI (M19-MEL melanoma): > 100 µM
- TGI (XF 498 CNS): > 100 µM
- TGI (DMS 114 small cell lung): > 100 µM
- TGI (DLD-1 colon): > 100 µM

Structure (SMILES): CCCCN(CCCC)CCc1c(C)cc(C)c(CCN(CCCC)CCCC)c1O
- GI50 (HS 578T breast): 2.7 µM
- TGI (HS 578T breast): 8.59 µM
